Test results reported in ChEMBL document CHEMBL1156876, “Design and study of peptide-based inhibitors of amylin cytotoxicity” (Bioorg Med Chem Lett, 2010).
Non-standard residues stand in square brackets, D forms with d. Residues, ends and D or L forms follow the SMILES beside them. NMeH = CN[C@@H](Cc1c[nH]cn1)C(=O)O; NMeF = CN[C@@H](Cc1ccccc1)C(=O)O; NMeI = CC[C@H](C)[C@H](NC)C(=O)O; NMeT = CN[C@H](C(=O)O)[C@@H](C)O; NMeN = CN[C@@H](CC(N)=O)C(=O)O; NMeL = CN[C@@H](CC(C)C)C(=O)O; NMeV = CN[C@H](C(=O)O)C(C)C; NMeS = CN[C@@H](CO)C(=O)O; NMeA = CN[C@@H](C)C(=O)O; Sar = CNCC(=O)O

What was measured:
[1] = Cytotoxicity against rat RIN5F cells at 225 uM; type: cell-based
[2] = Inhibition of amylin-induced cytotoxicity in rat RIN5F cells at 225 uM after 24 hrs by MTT assay relative to control; type: functional; set-up: scale not given: the % may be the effect or the level left

Molecule | Activity [1] | Activity [2]
CC(C)C[C@@H](C(=O)N(C)[C@@H](C)C(N)=O)N(C)C(=O)[C@H](CCCNC(=N)N)N(C)C(=O)[C@H](CCC(N)=O)N(C)C(=O)[C@@H](N)[C@H](C)O | Non-toxic | –
CC(C)C[C@@H](C(=O)N(C)[C@H](C(=O)N(C)[C@@H](Cc1cnc[nH]1)C(=O)N(C)[C@@H](CO)C(=O)N(C)[C@@H](CO)C(N)=O)C(C)C)N(C)C(=O)[C@@H](N)Cc1ccccc1 (H-F[NMeL][NMeV][NMeH][NMeS][NMeS]-NH2) | Non-toxic | –
C[C@H](NC(=O)[C@@H](NC(=O)[C@@H](N)CC(N)=O)[C@@H](C)O)C(=O)N[C@H](C(N)=O)[C@@H](C)O (H-NTAT-NH2) | Non-toxic | 25%
CC[C@H](C)[C@@H](C(=O)N(C)[C@@H](CC(C)C)C(N)=O)N(C)C(=O)[C@H](C)N(C)C(=O)CN(C)C(=O)[C@H](Cc1ccccc1)N(C)C(=O)[C@@H](N)CC(N)=O (H-N[NMeF][Sar][NMeA][NMeI][NMeL]-NH2) | Non-toxic | –
C[C@@H](O)[C@@H](C(=O)N(C)[C@@H](C)C(=O)N(C)[C@H](C(N)=O)[C@@H](C)O)N(C)C(=O)[C@@H](N)CC(N)=O (H-N[NMeT][NMeA][NMeT]-NH2) | Non-toxic | –
CC(C)[C@@H](C(=O)N(C)CC(=O)N(C)[C@@H](CO)C(N)=O)N(C)C(=O)[C@H](CC(N)=O)N(C)C(=O)[C@H]([C@@H](C)O)N(C)C(=O)[C@@H](N)CO (H-S[NMeT][NMeN][NMeV][Sar][NMeS]-NH2) | Non-toxic | –
H-FLVHSS-NH2 | Non-toxic | 20%
H-NFGAIL-NH2 | Non-toxic | 50%
H-STNVGS-NH2 | Non-toxic | 18%
H-TQRLA-NH2 | Non-toxic | 50%
